Experimental data as given in ChEMBL document CHEMBL1201862, “PubChem BioAssay data set” (2004).
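Method: 48-hour compound exposure of cells in 96-well plates, five concentrations, linear interpolation of endpoints. Here, GI50 denotes the concentration required for 50% inhibition of growth.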 Activity calls are given as the source filed them. No stated cut-off is given here; in the data, active = GI50 up to about 1.1 µM and inactive = higher.

Columns and labels:
Assay in all cases: NCI tumour cell line growth inhibition, 48 h
[1] = system: MCF7
[2] = system: BT-549
[3] = system: SNB-78
[4] = system: DMS-273
[5] = system: XF498
[6] = system: KM-20L2
[7] = system: HOP-18
[8] = system: DMS-114

Cc1cc(Cl)ccc1Nc1sc(C(=O)c2cc3cc(Cl)ccc3o2)c(N)c1C#N
GI50 [1]: 8.38 µM (inactive) | GI50 [2]: > 51.9 µM (inactive)

O=[N+]([O-])c1ccc(/N=N/N2CCCC2)cc1
GI50 [1]: > 100 µM (inactive) | GI50 [2]: > 100 µM (inactive)

COC(=O)c1ccccc1C1CN=NC12Cc1ccc(C)cc1C2=O (centres undefined)
GI50 [1]: 72.8 µM (inactive) | GI50 [2]: 47.9 µM (inactive)

O=C(Nc1ccccc1)c1cc(S(=O)(=O)NC2=Nc3ccc(Cl)cc3C(c3ccccc3)N2)c(SSc2cc(Cl)c(C(=O)Nc3ccccc3)cc2S(=O)(=O)NC2=Nc3ccc(Cl)cc3C(c3ccccc3)N2)cc1Cl (centres undefined)
GI50 [1]: > 100 µM (inactive) | GI50 [2]: > 100 µM (inactive)

c1ncn(C23C4C5C6C4C2C6C53)n1 (centres undefined)
GI50 [1]: > 100 µM (inactive)

COc1ccc(C)cc1N1C(=O)C2ON(Cc3ccc(CC(N)=O)cc3)C(c3c4ccccc4c(Cl)c4ccccc34)C2C1=O (centres undefined)
GI50 [1]: 26.4 µM (inactive) | GI50 [2]: 24.1 µM (inactive)

CC1(C)C[C@H](O)[C@H](O)[C@]23C(=O)O[C@H](O)[C@H]2C(C=O)=CC[C@@H]13
GI50 [1]: > 100 µM (inactive) | GI50 [2]: > 100 µM (inactive)

O=C(/C=C/c1ccc(O)c(O)c1)OCCOC(=O)/C=C/c1ccc(O)c(O)c1
GI50 [1]: 34.5 µM (inactive) | GI50 [2]: 34.4 µM (inactive)

CN1Cc2ccccc2S(=O)(=O)n2cccc2C1=O
GI50 [1]: > 100 µM (inactive) | GI50 [2]: > 100 µM (inactive)

CC(/C=C/c1ccccc1)=N\N=C(C)\C=C\c1ccccc1
GI50 [3]: > 100 µM (inactive) | GI50 [4]: > 100 µM (inactive) | GI50 [5]: > 100 µM (inactive) | GI50 [6]: > 100 µM (inactive)

COP(=O)(CC(=O)C1OC(C)(C)OC1C(O)COCc1ccccc1)OC (centres undefined)
GI50 [3]: > 100 µM (inactive) | GI50 [4]: > 100 µM (inactive) | GI50 [7]: > 100 µM (inactive) | GI50 [6]: > 100 µM (inactive) | GI50 [8]: > 100 µM (inactive)

COC(=O)/C(=N\NC(=O)c1ccccc1O)C(C#N)c1ccccc1 (centres undefined)
GI50 [3]: 23.4 µM (inactive) | GI50 [4]: 19 µM (inactive) | GI50 [5]: 17.3 µM (inactive) | GI50 [6]: > 50 µM (inactive) | GI50 [8]: 15.9 µM (inactive)

Cc1ccc(-c2nc(N/N=C/c3ccc(O)cc3)c3ccccc3n2)cc1
GI50 [1]: 10.2 µM (inactive) | GI50 [2]: 28 µM (inactive)

CN(C)CCNC(=O)c1ccc2ccc3cccnc3c2n1
GI50 [3]: 7.78 µM (inactive) | GI50 [4]: 6.89 µM (inactive) | GI50 [7]: 26.2 µM (inactive) | GI50 [6]: 9.57 µM (inactive) | GI50 [8]: 12.1 µM (inactive)

COc1ccc(-n2nnc(C(N)=O)c2O)cc1
GI50 [1]: > 100 µM (inactive) | GI50 [2]: > 100 µM (inactive)

CN(C)Cc1cc(/N=N/c2ccccc2Cl)cc(CN(C)C)c1O
GI50 [1]: > 100 µM (inactive) | GI50 [2]: 53.1 µM (inactive)

CCOc1ccc(C(c2c(O)c3ccccc3oc2=O)c2c(O)c3ccccc3oc2=O)cc1
GI50 [1]: 46.6 µM (inactive) | GI50 [2]: 67.8 µM (inactive)

Oc1ccc(I)c2cccnc12
GI50 [3]: 56.9 µM (inactive) | GI50 [4]: 2.04 µM (inactive) | GI50 [5]: 38.9 µM (inactive) | GI50 [7]: 8.07 µM (inactive) | GI50 [6]: 50.4 µM (inactive)

COc1cc(OC)c(OC)cc1/C=C/c1cc[n+](C)c2ccccc12
GI50 [1]: 49.2 µM (inactive)

CCOC(=O)C(NC(=O)OC(C)(C)C)C(=O)OCC
GI50 [1]: > 100 µM (inactive) | GI50 [2]: > 100 µM (inactive)

COc1cc(OC)c(OC)cc1/C=N/NC(=O)N/N=C/c1cc(OC)c(OC)cc1OC
GI50 [3]: > 100 µM (inactive) | GI50 [4]: > 100 µM (inactive) | GI50 [5]: 72.4 µM (inactive) | GI50 [7]: > 100 µM (inactive) | GI50 [6]: > 100 µM (inactive) | GI50 [8]: > 100 µM (inactive)

O=S(=O)(O)c1ccc2c(/N=N/c3ccccc3Cl)c(O)ccc2c1
GI50 [2]: > 100 µM (inactive)

CC1(C)CC(=O)c2[nH]c3ccccc3c2CC(=O)NCCc2cn1cn2
GI50 [1]: > 100 µM (inactive) | GI50 [2]: > 100 µM (inactive)

N#CC(c1ccc(O)cc1)N1CCN(C(C#N)c2ccc(O)cc2)CC1 (centres undefined)
GI50 [1]: > 100 µM (inactive) | GI50 [2]: > 72.3 µM (inactive)

CC(Oc1ccccc1Cl)C(=O)NN1C(=O)CSC1c1ccccc1 (centres undefined)
GI50 [1]: 92.3 µM (inactive) | GI50 [2]: > 100 µM (inactive)

Nc1nc(Cl)c(N)c(NCC2(CO)CCCC2)n1
GI50 [1]: 90.6 µM (inactive) | GI50 [2]: 50.5 µM (inactive)

Cc1cn(CCCCC2=NCCCN2)c(=O)[nH]c1=O
GI50 [1]: > 26.3 µM (inactive)

CC(C)[C@H]1NC(=O)[C@H]2N=C(S[C@H]2C)[C@@H]2CCCN2C(=O)[C@H](Cc2ccccc2)NC(=O)[C@@H]2CSC(=N2)[C@@H](Cc2ccccc2)NC(=O)[C@@H]2CSC1=N2
GI50 [1]: 19.1 µM (inactive) | GI50 [2]: > 50 µM (inactive)

CC(C)=CCC/C(C)=C/C=C/C(C)=C/C=C/C(C)=C/C=C/C=C(C)/C=C/C=C(C)/C=C/[C@H]1C(C(C)(C)O)CC[C@]1(C)O (some centres undefined)
GI50 [1]: 16.4 µM (inactive)

O=C1N[C@H]2c3c(Cl)sc(Cl)c3/C(=N/O)[C@H]2O1
GI50 [1]: > 100 µM (inactive) | GI50 [2]: > 100 µM (inactive)

Cc1ccc(NC(=O)C(=O)Cc2cc[n+]([O-])cc2)cc1
GI50 [3]: > 100 µM (inactive) | GI50 [4]: > 100 µM (inactive) | GI50 [5]: > 100 µM (inactive) | GI50 [7]: > 100 µM (inactive) | GI50 [6]: > 100 µM (inactive) | GI50 [8]: > 100 µM (inactive)

CCCN(CCCC(NC(C)=O)C(=O)NCc1ccccc1)C(=O)N(C)N=O (centres undefined)
GI50 [3]: > 100 µM (inactive) | GI50 [4]: > 100 µM (inactive) | GI50 [5]: > 100 µM (inactive) | GI50 [6]: > 100 µM (inactive) | GI50 [8]: > 100 µM (inactive)
